In patent publication US12440706B2, “Conjugated chemical inducers of degradation and methods of use” (Genentech, Inc., priority 2018, dated 2025):

Each molecule was assayed on EOL-1 AML xenografts (assay: EOL-1 AML subcutaneous xenograft efficacy). Details: single IV dose 0.4 mg/kg.
Format: in vivo, mice
Method: Two human AML cell lines, EOL-1 (DSMZ; Braunschweig, Germany) and HL-60 (ATCC, Manassas, VA) were used to establish subcutaneous xenograft models for efficacy evaluation of the degrader-antibody conjugates. Tumor cells (5 million cells suspended in 0.1 mL of Hanks' Balanced Salt Solution supplemented with Matrigel) were inoculated to the flanks of female CB-17 Fox Chase SCID mice (Charles River Lab, Hollister, CA). When mean tumor size reached the desired volume (200-300 mm^3), animals were randomized into groups of n=5, each with similar tumor volume distributions, and each animal received an intraperitoneal dose of a mouse IgG2a anti-ragweed antibody in excess amount (30 mg/kg; to block Fcγ receptors frequently expressed on the surface of AML cells). Four hours later, vehicle or degrader-antibody conjugates were administered to the animals via single intravenous (IV) bolus injections through the tail vein. Tumors were measured in two dimensions (length and width) using calipers and the tumor volume was calculated using the formula: Tumor size (mm^3)=0.5×(length×width×width). The results were plotted as mean tumor volume+/−SEM of each group over time. Treatment groups were not blinded during tumor measurement.

Row | SMILES | efficacy in the EOL-1 model
1 | Cc1ncsc1-c1ccc(CNC(=O)[C@@H]2C[C@@H](O)CN2C(=O)[C@@H](NC(=O)CCCCCCCCCCNC(=O)c2cc3c(cc2CS(C)(=O)=O)-c2cn(C)c(=O)c4[nH]cc(c24)CN3c2ncc(F)cc2F)C(C)(C)C)cc1 [unconjugated CIDE] | no efficacy

Each molecule was assayed against T1, ERα (Homo sapiens, UniProt P03372) (assay: Degradation of ERα by Ab-CIDEs (Example 3, FIGS. 1-3, Tables 2-4)). Details: ERα degradation by Ab-CIDE.
T1 construct: ERα degradation percent activity in MCF7 neo/HER2 cells
T1 sequence (P03372 1-595): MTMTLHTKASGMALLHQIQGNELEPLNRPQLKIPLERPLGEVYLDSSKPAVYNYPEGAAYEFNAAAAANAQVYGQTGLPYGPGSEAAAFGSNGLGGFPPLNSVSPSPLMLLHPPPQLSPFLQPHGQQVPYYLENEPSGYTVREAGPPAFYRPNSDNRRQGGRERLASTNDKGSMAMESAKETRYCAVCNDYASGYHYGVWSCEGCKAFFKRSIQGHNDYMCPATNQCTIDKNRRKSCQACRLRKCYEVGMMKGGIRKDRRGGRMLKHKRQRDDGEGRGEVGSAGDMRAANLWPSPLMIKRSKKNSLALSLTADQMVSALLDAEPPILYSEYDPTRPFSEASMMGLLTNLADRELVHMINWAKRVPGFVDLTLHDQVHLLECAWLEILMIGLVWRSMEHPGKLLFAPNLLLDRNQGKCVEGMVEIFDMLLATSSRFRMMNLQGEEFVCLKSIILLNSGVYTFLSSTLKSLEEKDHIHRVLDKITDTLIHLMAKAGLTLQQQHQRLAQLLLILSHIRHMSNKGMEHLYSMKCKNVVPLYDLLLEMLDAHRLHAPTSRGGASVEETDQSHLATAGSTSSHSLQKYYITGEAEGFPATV
Format: cell-based

Row | SMILES | DC50 | Sinf
2 | CC/C(=C(/c1ccc(OCCN(C)C(=O)CCOCCOCCC(=O)N[C@H](C(=O)N2C[C@H](OC(=O)OCC(C)(C)SS(C)(=O)=O)C[C@H]2C(=O)NCc2ccc(-c3scnc3C)cc2)C(C)(C)C)cc1)c1ccc(OP(=O)(O)O)cc1)c1ccccc1 [Thio Hu Anti- CD22 10F4v3 high DAR [LC:K149C HC:L174C HC:Y37] | 1270 nM | −92%
3 | CC/C(=C(\c1ccc(O)cc1)c1ccc(OCCN(C)C(=O)CCOCCOCCC(=O)N[C@H](C(=O)N2C[C@H](OC(=O)OCC(C)(C)SS(C)(=O)=O)C[C@H]2C(=O)NCc2ccc(-c3scnc3C)cc2)C(C)(C)C)cc1)c1ccccc1 [Thio Hu Anti- CD22 10F4v3 high DAR [LC:K149C HC:L174C Y373C]] | 304 nM | −92%
4 | CC/C(=C(/c1ccc(OCCN(C)C(=O)CCOCCOCCC(=O)N[C@H](C(=O)N2C[C@H](OC(=O)OCC(C)(C)SS(C)(=O)=O)C[C@H]2C(=O)NCc2ccc(-c3scnc3C)cc2)C(C)(C)C)cc1)c1ccc(OP(=O)(O)O)cc1)c1ccccc1 [Thio Hu Anti- Her2 7C2 high DAR [LC:K149C HC:L174C HC:Y373C]] | 47.4 nM | −94%
5 | CC/C(=C(\c1ccc(O)cc1)c1ccc(OCCN(C)C(=O)CCOCCOCCC(=O)N[C@H](C(=O)N2C[C@H](OC(=O)OCC(C)(C)SS(C)(=O)=O)C[C@H]2C(=O)NCc2ccc(-c3scnc3C)cc2)C(C)(C)C)cc1)c1ccccc1 [Thio Hu Anti- Her2 7C2 high DAR [LC:K149C HC:L174C HC:Y373C]] | 27.9 nM | −93%
